One test concerns OVCAR-3. Nature of the test: Growth inhibition of human OVCAR-3 cells incubated for 3 days by CellTiter-Glo luminescent assay. The format is functional. As to conditions: OVCAR-3, 72 h, time 3 day.
In the next test the test system is SK-OV-3. Description: Growth inhibition of human SK-OV-3 cells incubated for 3 days by CellTiter-Glo luminescent assay. The format is functional. As to conditions: SK-OV-3, 72 h, time 3 day.

As to `CC[C@H](C)[C@@H]([C@@H](CC(=O)N1CCC[C@H]1[C@H](OC)[C@@H](C)CC(=O)N[C@H](C)[C@@H](C)c1ccccc1)OC)N(C)C(=O)[C@@H](NC(=O)[C@H](C(C)C)N(C)C(=O)OCc1ccc(NC(=O)[C@H](CCCNC(N)=O)NC(=O)[C@@H](NC(=O)CCCCCN2C(=O)CC(SCC[C@@H](NC(=O)[C@H](Cc3ccc(O)cc3)NC(=O)[C@H](CO)NC(=O)[C@H](Cc3c[nH]c4ccccc34)NC(=O)[C@H](Cc3cnc[nH]3)NC(=O)[C@@H]3CCC(=O)N3)C(=O)N[C@@H](CC(C)C)C(=O)N[C@@H](CCCNC(=N)N)C(=O)N3CCC[C@H]3C(=O)NCC(N)=O)C2=O)C(C)C)cc1)C(C)C` (some centres not stated), the GI50 (as a rule, the concentration giving 50% growth inhibition) in the test with OVCAR-3 turned out to be 4 nM; in the test on SK-OV-3 it was 453 nM.

The values are drawn from ChEMBL document CHEMBL6134896, “Recent Advances in Augmenting the Therapeutic Efficacy of Peptide-Drug Conjugates” (2025).
